Measured values: patent US20250339399A1, “SUPRAMOLECULAR SELF-ASSEMBLY SYSTEM” (Beijing Creatron Institute of Pharmaceutical Research Co., …, priority 2022, published 2025)
Where a name gives a salt, the structure may show the parent alone. Read-outs that look alike come from different tables or passages of the source.

Columns and labels:
[1] = cited from earlier work
[2] = Guest molecule concentration after incubation in initial medium without polymer (Comparative Example 1); assay type: physicochemical; settings: 37° C., pH 6.8 phosphate buffer
How it was run: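 Dissolved guest content measured by HPLC of centrifuged supernatants (37° C., 13000 rpm, 5 min) sampled at 0.5 h, 3 h and 6 h. Incubation was polymer-free at 37° C.±0.5° C. in buffers of pH 2.0-7.4; nominal loading was set by maximum clinical dose.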

[3] = parent flavonoid of the class; value follows the class name; cited from earlier work
[4] = Binary supramolecular self-assembly systems of polymer and target: guest concentration over incubation time (Comparative Example 2); assay type: physicochemical; settings: for Concentration of guest molecule in solution / Times that of the initial medium: 6 h
Experimental: Experiments were conducted according to the steps in Comparative Example 1, and quantitative analysis was carried out using the analytical method for each target to investigate the regulation ability […] stacking.

[5] = human use, cited from earlier work

Compound: O=C1C[C@@H](c2ccc(O)cc2)Oc2cc(O)cc(O)c21 [Naringenin]
- LogP [1]: LogP 2.71
- Concentration of guest molecule measured after different incubated time ([2]; 0.5 h): 169.9 µg/mL
- Concentration of guest molecule measured after different incubated time ([2]; 3 h): 126.7 µg/mL
- Concentration of guest molecule measured after different incubated time ([2]; 6 h): 129.1 µg/mL
- solubility value given in Table 1 (basic information of natural flavonoids) [3]: Naringenin (CAS 480-41) derivatives, EUF-0.58 mg/ml
- Concentration of the target in the solution measured after different incubation time ([4]; binary system with 0.5% polymer 101, incubation 0.5 h): 412.1 µg/mL
- Concentration of the target in the solution measured after different incubation time ([4]; binary system with 0.5% polymer 101, incubation 3 h): 214.9 µg/mL
- Concentration of the target in the solution measured after different incubation time ([4]; binary system with 0.5% polymer 101, incubation 6 h): 126.4 µg/mL
- Concentration of the target in the solution measured after different incubation time ([4]; binary system with 0.5% polymer 102, incubation 0.5 h): 456.4 µg/mL
- Concentration of the target in the solution measured after different incubation time ([4]; binary system with 0.5% polymer 102, incubation 3 h): 389.1 µg/mL
- Concentration of the target in the solution measured after different incubation time ([4]; binary system with 0.5% polymer 102, incubation 6 h): 383.3 µg/mL
- Concentration of the target in the solution measured after different incubation time ([4]; binary system with 0.5% polymer 103, incubation 0.5 h): 230.7 µg/mL
- Concentration of the target in the solution measured after different incubation time ([4]; binary system with 0.5% polymer 103, incubation 3 h): 231.0 µg/mL
- Concentration of the target in the solution measured after different incubation time ([4]; binary system with 0.5% polymer 103, incubation 6 h): 233.5 µg/mL
- Concentration of the target in the solution measured after different incubation time ([4]; binary system with 0.5% polymer 106, incubation 0.5 h): 469.5 µg/mL
- Concentration of the target in the solution measured after different incubation time ([4]; binary system with 0.5% polymer 106, incubation 3 h): 462.5 µg/mL
- Concentration of the target in the solution measured after different incubation time ([4]; binary system with 0.5% polymer 106, incubation 6 h): 478.8 µg/mL
- Concentration of the target in the solution measured after different incubation time ([4]; binary system with 0.5% polymer 107, incubation 0.5 h): 127.5 µg/mL
- Concentration of the target in the solution measured after different incubation time ([4]; binary system with 0.5% polymer 107, incubation 3 h): 130.9 µg/mL
- Concentration of the target in the solution measured after different incubation time ([4]; binary system with 0.5% polymer 107, incubation 6 h): 139.1 µg/mL
- Concentration of the target in the solution measured after different incubation time ([4]; binary system with 0.5% polymer 110, incubation 0.5 h): 112.7 µg/mL
- Concentration of the target in the solution measured after different incubation time ([4]; binary system with 0.5% polymer 110, incubation 3 h): 79.0 µg/mL
- Concentration of the target in the solution measured after different incubation time ([4]; binary system with 0.5% polymer 110, incubation 6 h): 77.6 µg/mL
- Concentration of guest molecule in solution ([4]; binary: 0.5% 102H): 383.3 µg/mL
- Times that of the initial medium ([4]; binary: 0.5% 102H): 3.0 times
- Concentration of guest molecule in solution ([4]; binary: 0.5% 103E5): 233.5 µg/mL
- Times that of the initial medium ([4]; binary: 0.5% 103E5): 1.8 times

Compound: O=C(O[C@@H]1Cc2c(O)cc(O)cc2O[C@@H]1c1cc(O)c(O)c(O)c1)c1cc(O)c(O)c(O)c1 [compound 303, (−)−Epigallocatechin 3-gallate]
- Acceptable daily intake (ADI) [5]: 135-270 mg/person/ day mg/person/day

Compound: C=C1C[C@@]23CC[C@H]4[C@@](C)(CCC[C@@]4(C)C(=O)O)[C@@H]2CC[C@]1(O[C@@H]1O[C@H](CO)[C@@H](O)[C@H](O[C@@H]2O[C@H](CO)[C@@H](O)[C@H](O)[C@H]2O)[C@H]1O[C@@H]1O[C@H](CO)[C@@H](O)[C@H](O)[C@H]1O)C3 [compound 307, Rebaudioside B]
- Acceptable daily intake (ADI) ([5]; bw: body weight): 6 mg/kg bw/day

Compound: C=C1C[C@@]23CC[C@H]4[C@@](C)(CCC[C@@]4(C)C(=O)O[C@@H]4O[C@H](CO)[C@@H](O)[C@H](O)[C@H]4O)[C@@H]2CC[C@]1(O[C@@H]1O[C@H](CO)[C@@H](O)[C@H](O[C@@H]2O[C@H](CO)[C@@H](O)[C@H](O)[C@H]2O)[C@H]1O[C@@H]1O[C@@H](C)[C@H](O)[C@@H](O)[C@H]1O)C3 [compound 308, Rebaudioside C]
- Acceptable daily intake (ADI) ([5]; bw: body weight): 6 mg/kg bw/day

Compound: C[C@@H]1O[C@@H](O[C@H]2[C@H](Oc3cc(O)c(C(=O)CCc4ccc(O)cc4)c(O)c3)O[C@H](CO)[C@@H](O)[C@@H]2O)[C@H](O)[C@H](O)[C@H]1O [compound 312, Naringin dihydrochalcone]
- Acceptable daily intake (ADI) [5]: 41 mg/person/ day mg/person/day

Compound: CC1(C)[C@@H](O[C@H]2O[C@H](C(=O)O)[C@@H](O)[C@H](O)[C@H]2O[C@@H]2O[C@H](C(=O)O)[C@@H](O)[C@H](O)[C@H]2O)CC[C@]2(C)[C@H]3C(=O)C=C4[C@@H]5C[C@@](C)(C(=O)O)CC[C@]5(C)CC[C@@]4(C)[C@]3(C)CC[C@@H]12 [compound 314, Glycyrrhizic acid and its ammonium salt]
- Acceptable daily intake (ADI) ([5]; bw: body weight): 2 mg/kg bw/day

Compound: C=C1C[C@@]23CC[C@H]4[C@@](C)(CCC[C@@]4(C)C(=O)O[C@@H]4O[C@H](CO)[C@@H](O)[C@H](O)[C@H]4O)[C@@H]2CC[C@]1(O[C@@H]1O[C@H](CO)[C@@H](O)[C@H](O)[C@H]1O[C@@H]1O[C@H](CO)[C@@H](O)[C@H](O)[C@H]1O)C3 [compound 315, Stevioside]
- Acceptable daily intake (ADI) ([5]; bw: body weight): 4 mg/kg bw/day

Compound: O=C(OC[C@H]1O[C@@H](OC(=O)c2cc(O)c(O)c(OC(=O)c3cc(O)c(O)c(O)c3)c2)[C@H](OC(=O)c2cc(O)c(O)c(OC(=O)c3cc(O)c(O)c(O)c3)c2)[C@@H](OC(=O)c2cc(O)c(O)c(OC(=O)c3cc(O)c(O)c(O)c3)c2)[C@@H]1OC(=O)c1cc(O)c(O)c(OC(=O)c2cc(O)c(O)c(O)c2)c1)c1cc(O)c(O)c(OC(=O)c2cc(O)c(O)c(O)c2)c1 [compound 316, Tannic acid]
- Acceptable daily intake (ADI) ([5]; bw: body weight): 15 mg/kg bw/day

Compound: COc1ccc([C@@H]2CC(=O)c3c(O)cc(O[C@@H]4O[C@H](CO)[C@@H](O)[C@H](O)[C@H]4O[C@@H]4O[C@@H](C)[C@H](O)[C@@H](O)[C@H]4O)cc3O2)cc1O [compound 318, Neohesperidin]
- Acceptable daily intake (ADI) ([5]; bw: body weight): 5 mg/kg bw/day

Compound: C[C@H](CC[C@@H](O[C@@H]1O[C@H](CO[C@@H]2O[C@H](CO)[C@@H](O)[C@H](O)[C@H]2O)[C@@H](O)[C@H](O)[C@H]1O[C@@H]1O[C@H](CO)[C@@H](O)[C@H](O)[C@H]1O)C(C)(C)O)[C@H]1CC[C@@]2(C)[C@@H]3CC=C4[C@@H](CC[C@H](O[C@@H]5O[C@H](CO[C@@H]6O[C@H](CO)[C@@H](O)[C@H](O)[C@H]6O)[C@@H](O)[C@H](O)[C@H]5O)C4(C)C)[C@]3(C)[C@H](O)C[C@]12C [compound 319, Mogroside V]
- Acceptable daily intake (ADI) ([5]; bw: body weight): 0-2.5 mg/kg bw/day

Compound: C=C1C[C@@]23CC[C@H]4[C@@](C)(CCC[C@@]4(C)C(=O)O[C@@H]4O[C@H](CO)[C@@H](O)[C@H](O)[C@H]4O[C@@H]4O[C@H](CO)[C@@H](O)[C@H](O)[C@H]4O)[C@@H]2CC[C@]1(O[C@@H]1O[C@H](CO)[C@@H](O)[C@H](O[C@@H]2O[C@H](CO)[C@@H](O)[C@H](O)[C@H]2O)[C@H]1OC1O[C@H](CO)[C@@H](O)[C@H](O)[C@H]1O)C3 (some centres unmarked) [compound 320, Rebaudioside D]
- Acceptable daily intake (ADI) ([5]; bw: body weight): 3-5 mg/kg bw/day

Compound: C=C1C[C@@]23CC[C@H]4[C@@](C)(CCC[C@@]4(C)C(=O)O[C@@H]4O[C@H](CO)[C@@H](O)[C@H](O[C@@H]5O[C@H](CO)[C@@H](O)[C@H](O)[C@H]5O)[C@H]4O[C@@H]4O[C@H](CO)[C@@H](O)[C@H](O)[C@H]4O)[C@@H]2CC[C@]1(O[C@@H]1O[C@H](CO)[C@@H](O)[C@H](O[C@@H]2O[C@H](CO)[C@@H](O)[C@H](O)[C@H]2O)[C@H]1OC1O[C@H](CO)[C@@H](O)[C@H](O)[C@H]1O)C3 (some centres unmarked) [compound 321, Rebaudioside M]
- Acceptable daily intake (ADI) ([5]; bw: body weight): 4 mg/kg bw/day

Compound: Isoquercitrin [compound 304]
- Acceptable daily intake (ADI) ([5]; bw: body weight): 3.3 mg/kg bw/day

Compound: Myricitrin [compound 306]
- Acceptable daily intake (ADI) ([5]; bw: body weight): 14 mg/kg bw/day

Compound: Neohesperidin dihydrochalcone [compound 310]
- Acceptable daily intake (ADI) ([5]; bw: body weight): 3-5 mg/kg bw/day
